tested on: Human immunodeficiency virus 1; test: Antiviral activity against HIV1; assay type: functional, organism-based; conditions: Human immunodeficiency virus 1, read-out: pIC50 (converted)

In order of rising IC50:
1. Cc1cc(C)cc(S(=O)(=O)c2cccc(N)c2C#N)c1  0.01 µM
2. Cc1cc(Br)cc(S(=O)(=O)c2cccc(N)c2C#N)c1  0.02 µM
3. Cc1cc(Cl)cc(S(=O)(=O)c2cccc(N)c2C#N)c1  0.03 µM
4. COc1cc(C)cc(S(=O)(=O)c2cccc(N)c2C#N)c1  0.05 µM
5. CCOc1cc(C)cc(S(=O)(=O)c2cccc(N)c2C#N)c1  0.06 µM
6. CCCOc1cc(C)cc(S(=O)(=O)c2cccc(N)c2C#N)c1  0.06 µM
7. N#Cc1c(N)cccc1S(=O)(=O)c1cc(Cl)cc(Cl)c1  0.07 µM
8. N#Cc1c(N)cccc1[S+]([O-])c1cccc(Br)c1 (stereo not drawn)  0.08 µM
9. COc1cc(C(F)(F)F)cc(S(=O)(=O)c2cccc(N)c2C#N)c1  0.09 µM
10. N#Cc1c(N)cccc1S(=O)(=O)c1cc(Cl)ccc1Cl  0.3 µM
11. Cc1cc(Cl)cc([S+]([O-])c2cccc(N)c2C#N)c1 (stereo not drawn)  0.32 µM
12. Cc1cc(C)cc([S+]([O-])c2cccc(N)c2C#N)c1 (stereo not drawn)  0.34 µM
13. Cc1cccc(S(=O)(=O)c2cccc(N)c2C#N)c1  0.4 µM
14. Cc1cc(C)cc(Sc2cccc(N)c2C#N)c1  0.429 µM
15. Cc1cc(O)cc(S(=O)(=O)c2cccc(N)c2C#N)c1  0.429 µM
16. N#Cc1c(N)cccc1S(=O)(=O)c1cccc(Br)c1  0.539 µM
17. N#Cc1c(N)cccc1S(=O)(=O)c1cccc(Cl)c1  0.59 µM
18. CCCCOc1cc(C)cc(S(=O)(=O)c2cccc(N)c2C#N)c1  0.6 µM
19. COc1ccccc1S(=O)(=O)c1cccc(N)c1C#N  0.6 µM
20. COc1cccc(S(=O)(=O)c2cccc(N)c2C#N)c1  0.899 µM
21. N#Cc1cccc(Sc2cccc(N)c2C#N)c1  1.73 µM
22. Cc1cc(Cl)cc(Sc2cccc(N)c2C#N)c1  1.76 µM
23. N#Cc1c(N)cccc1S(=O)(=O)c1ccccc1  2 µM
24. COc1cc(C)cc(Sc2cccc(N)c2C#N)c1  2 µM
25. COc1cc([S+]([O-])c2cccc(N)c2C#N)cc(C(F)(F)F)c1 (stereo not drawn)  2.07 µM
26. Cc1ccccc1S(=O)(=O)c1cccc(N)c1C#N  2.3 µM
27. N#Cc1cccc(S(=O)(=O)c2cccc(N)c2C#N)c1  2.4 µM
28. N#Cc1c(N)cccc1S(=O)(=O)c1ccccc1F  3 µM
29. N#Cc1c(N)cccc1S(=O)(=O)c1ccc(Cl)cc1  3 µM
30. N#Cc1c(N)cccc1S(=O)(=O)c1cccc(F)c1  3 µM
31. N#Cc1c(N)cccc1S(=O)(=O)c1cccc(C(F)(F)F)c1  3.5 µM
32. N#Cc1ccccc1[S+]([O-])c1cccc(N)c1C#N (stereo not drawn)  3.9 µM
33. N#Cc1c(N)cccc1S(=O)(=O)c1ccccc1Cl  4.1 µM
34. N#Cc1c(N)cccc1Sc1ccccc1Cl  4.1 µM
35. COc1ccccc1Sc1cccc(N)c1C#N  4.29 µM
36. COc1ccccc1[S+]([O-])c1cccc(N)c1C#N (stereo not drawn)  4.8 µM
37. N#Cc1c(N)cccc1S(=O)(=O)c1ccccc1Br  5 µM
38. N#Cc1c(N)cccc1Sc1cccc(Br)c1  5.11 µM
39. COc1cc(Sc2cccc(N)c2C#N)cc(C(F)(F)F)c1  5.11 µM
40. N#Cc1ccccc1S(=O)(=O)c1cccc(N)c1C#N  5.4 µM
41. COc1cccc(Sc2cccc(N)c2C#N)c1  6 µM
42. Cc1cccc(Sc2cccc(N)c2C#N)c1  6.09 µM
43. N#Cc1c(N)cccc1Sc1cccc(Cl)c1  7.4 µM
44. Cc1ccc(S(=O)(=O)c2cccc(N)c2C#N)cc1  9.51 µM
45. N#Cc1c(N)cccc1Sc1cccc(F)c1  9.79 µM
46. N#Cc1c(N)cccc1[S+]([O-])c1cc(Cl)ccc1Cl (stereo not drawn)  9.84 µM
47. N#Cc1c(N)cccc1Sc1cccc(C(F)(F)F)c1  12.8 µM
48. N#Cc1cccc([S+]([O-])c2cccc(N)c2C#N)c1 (stereo not drawn)  14.2 µM
49. N#Cc1c(N)cccc1Sc1ccccc1  14.6 µM
50. Cc1ccccc1Sc1cccc(N)c1C#N  16 µM
51. COc1cccc([S+]([O-])c2cccc(N)c2C#N)c1 (stereo not drawn)  16 µM
52. N#Cc1c(N)cccc1S(=O)(=O)c1ccc(Br)cc1  20 µM
53. N#Cc1c(N)cccc1[S+]([O-])c1ccc(Br)cc1 (stereo not drawn)  20.2 µM
54. COc1ccc(S(=O)(=O)c2cccc(N)c2C#N)cc1  25 µM
55. Cc1cccc([S+]([O-])c2cccc(N)c2C#N)c1 (stereo not drawn)  29.2 µM
56. N#Cc1c(N)cccc1Sc1ccccc1Br  30 µM
57. N#Cc1c(N)cccc1Sc1cccc(N)c1  31.5 µM
58. N#Cc1c(N)cccc1[S+]([O-])c1ccccc1Br (stereo not drawn)  39.2 µM
59. N#Cc1c(N)cccc1[S+]([O-])c1cccc(C(F)(F)F)c1 (stereo not drawn)  40 µM
60. N#Cc1ccc(Sc2cccc(N)c2C#N)cc1  43.8 µM
61. Cc1ccc([S+]([O-])c2cccc(N)c2C#N)cc1 (stereo not drawn)  49 µM
62. N#Cc1ccc(S(=O)(=O)c2cccc(N)c2C#N)cc1  80 µM
63. Cc1ccccc1[S+]([O-])c1cccc(N)c1C#N (stereo not drawn)  92.9 µM

— ChEMBL document CHEMBL1137741, “QSAR models for 2-amino-6-arylsulfonylbenzonitriles and congeners HIV-1 reverse transcriptase inhibitors based on linear and nonlinear regression methods” (Eur J Med Chem, 2009)
